{"source": "paper PMC11784013", "about": "“Potassium molybdate blocks APN-dependent coronavirus entry by degrading receptor via PIK3C3-mediated autophagy” (Journal of Virology, 2024)", "key": {"APN [1]": {"test_system": "APN", "experiment": "APN expression in BHK-21 cells (western blot)", "assay_type": "cell-based, mouse", "conditions": "for APN level, western blot quantified by Image J, relative to no PM (=1): PM 10 mM", "procedure": "(§1) Fig. S6. PM degrades human and mouse-derived APN expression. (A and B) HEK-293T cells (A) and […] (B) were treated with PM (10 mM) for 8 h or 16 h respectively, APN expression was measured by western blot. All western blot results were calculated by Image J. All experiments were […]\n(§2) PM(10mM) - + - + PM(10mM) - + - + […]"}, "[2]": {"test_system": "autophagosomes and autolysosomes", "experiment": "Autophagic flux (RFP-EGFP-LC3B sensor) and transmission electron microscopy in ST cells", "assay_type": "cell-based, swine", "procedure": "Fig 6 PM degrades APN by autophagy-lysosome pathway. (A) ST cells were treated with PM (10 mM) and infected with TGEV (0.1 MOI) in the presence and absence of MG132 (20 µM), 3-MA (20 mM), and Z-VAD-FMK (20 µM) for 16 h. The APN expression and TGEV N were detected by western blot. (B) ST cells were treated with PM (10 mM) at 2, 4, 8, and 16 h, autophagy markers P62 and LC3, and APN were measured by western blot. (C) ST cells were transfected with RFP-EGFP-LC3B for 12 h and then treated with PM (10 mM) or H2O for 36 h. The fluorescence of GFP and RFP was detected by confocal microscopy, scale bar: 5 µm. (D) Quantification of autophagosomes (Merge) and autolysosomes (RFP) from C using Image J software. (E) ST cells were treated with PM or H2O for 24 h. The autophagosomes (yellow arrow) and autolysosomes (asterisk) were detected by transmission electron microscope, scale bar: 2 µm. (F) The number of autophagosomes (yellow arrow) and autolysosomes (asterisk) was quantified. All western blot results were calculated by Image J. Results are presented as mean ± SD of data from three independent experiments. ***, P ≤ 0.001."}, "TGEV Miller": {"test_system": "TGEV Miller", "experiment": "TGEV infection of ST cells (RT-qPCR, TCID50, western blot, IFA)", "assay_type": "cell-based, transmissible gastroenteritis virus", "conditions": "TGEV Miller 0.1 MOI, PM 1 h pretreatment and 17 h after infection, TCID50, western blot, IFA", "procedure": "(§3) Fig 1 PM inhibits TGEV and PRCV infection in ST cells. (A) A cytotoxicity assay of PM in ST cells. ST cells cultured in a 96-well plate were incubated with different concentrations of PM for 24 h, which was tested by Cell Counting Kit 8. (B) Time course for PM inhibiting TGEV or PRCV or PEDV infection assay. (C–F) The ST cells, pretreated with PM at the indicated concentrations for 1 h were infected with TGEV Miller (0.1 MOI) or PRCV (0.1 MOI) for 1 h and were again treated with PM at 37°C for 17 h. The cell samples were collected and examined by real-time quantitative PCR (RT-qPCR), TCID50, western blot (C and D), and immunofluorescence assay (IFA) (E and F), scale bar: 50 µm. (G) Vero-E6 cells were treated with indicated PM and infected with PEDV LJX 01/2014 according to the time course of Fig. 1B, which was detected by TCID50 and western blot. Results are presented as mean ± SD of data from three independent experiments. ns, no significant; **, P ≤ 0.01; ***, P ≤ 0.001.\nFig 3 PM inhibits TGEV and PRCV infection by potassium ion and molybdate synergy. […] The cell samples were measured by RT-qPCR. (C and D) ST cells were treated with PM (K2MoO4, 10 mM), KCl (20 mM), Na2MoO4 (10 mM), sodium chloride (NaCl, 10 mM), K2MoO4 (10 mM), and NaCl (20 mM) as well as Na2MoO4 (10 mM) and KCl (20 mM) for 1 h and then infected with TGEV Miller (0.1 MOI) or PRCV (0.1 MOI) for 17 h, which was determined by RT-qPCR and TCID50. […]\nTotal RNA was extracted using RNAiso reagent (TaKaRa, Japan, 9109) and reverse transcribed into cDNA using HiScript Q RT SuperMix for qPCR (Vazyme, China, R223-01), both of which followed the manufacturer’s recommendations. The TGEV and PRCV virus copy numbers were detected by the TaqMan probe-based RT-qPCR method developed previously in our laboratory ([59]). Relative qPCR was also performed using ChamQ SYBR qPCR master mix (Vazyme, China, Q311-02), and the results were calculated via the 2^-ΔΔCT method."}, "PEDV LJX 01/2014": {"test_system": "PEDV LJX 01/2014", "experiment": "PEDV infection of Vero-E6 cells (TCID50, western blot)", "assay_type": "cell-based, porcine epidemic diarrhea virus", "conditions": "TCID50 and western blot", "procedure": "as §3"}, "PDCoV": {"test_system": "PDCoV", "experiment": "PDCoV infection of PK1 cells (RT-qPCR)", "assay_type": "cell-based", "conditions": "PM 10 mM, PDCoV 0.1 MOI, 17 h", "procedure": "Fig. S1. […] (A) The PK1 cells, pretreated with PM (10mM) concentrations for 1 h were infected with PDCoV (0.1 MOI) for 1 h and were again treated with PM at 37 °C for 17 h.\nThe cell samples were collected and examined by RT-qPCR . Results are presented as mean ± SD of data from three independent experiments ***, P≤ 0.001.\n(also on this page, place not known: RT-qPCR. + - + + 2 3 4 5 6Viral load(log copies/ul) *** PDCoV PM PDCoV M)\n(1 picture or pasted object on this page, not shown here)"}, "APN [3]": {"test_system": "APN", "experiment": "APN expression in HEK-293T cells (western blot)", "assay_type": "cell-based, human", "conditions": "for APN level, western blot quantified by Image J, relative to no PM (=1): PM 10 mM", "procedure": "as §1, §2"}}, "note": "Entries after “also recorded” stand apart in the source; their conditions may differ."}
{"smiles": "[K+].[K+].[O]=[Mo](=[O])([O-])[O-]", "note": "[PM, potassium molybdate]", "values": [{"measurement": "APN level, western blot quantified by Image J, relative to no PM (=1)", "setting": "APN [1]; 8 h", "result": 0.38}, {"measurement": "APN level, western blot quantified by Image J, relative to no PM (=1)", "setting": "APN [1]; 16 h", "result": 0.20}, {"measurement": "mouse-derived APN expression", "setting": "APN [1]; PM for 8 and 16 h", "result": "also decreased human and mouse-derived APN expression"}, {"measurement": "autophagic flux (RFP-EGFP-LC3B sensor)", "setting": "[2]; PM 10 mM, 36 h, confocal microscopy", "result": "increased RFP signals (autolysosomes) and merge signals (autophagosomes)"}, {"measurement": "autophagosomes and autolysosomes by transmission electron microscopy", "setting": "[2]; PM vs H2O, 24 h", "result": "formed more autophagosomes"}, {"measurement": "TGEV infection", "setting": "TGEV Miller", "result": "effectively restricted"}, {"measurement": "PEDV infection", "setting": "PEDV LJX 01/2014", "result": "unable to repress PEDV infection"}, {"measurement": "PDCoV infection", "setting": "PDCoV", "result": "inhibits PDCoV infection; also recorded: effectively restricted"}, {"measurement": "APN level, western blot quantified by Image J, relative to no PM (=1)", "setting": "APN [3]; 8 h", "result": 0.42}, {"measurement": "APN level, western blot quantified by Image J, relative to no PM (=1)", "setting": "APN [3]; 16 h", "result": 0.23}, {"measurement": "human APN expression", "setting": "APN [3]; PM for 8 and 16 h", "result": "also decreased human and mouse-derived APN expression"}]}
